We go through 14 compounds from patent publication US11987586B1 (TAKEDA PHARMACEUTICAL COMPANY LIMITED, priority 2022, dated 2024).

In the assay the target is T1, human OX2 receptor (Homo sapiens, UniProt O43614).
T1 construct: expressed in transfected cells
T1 sequence (O43614 1-444): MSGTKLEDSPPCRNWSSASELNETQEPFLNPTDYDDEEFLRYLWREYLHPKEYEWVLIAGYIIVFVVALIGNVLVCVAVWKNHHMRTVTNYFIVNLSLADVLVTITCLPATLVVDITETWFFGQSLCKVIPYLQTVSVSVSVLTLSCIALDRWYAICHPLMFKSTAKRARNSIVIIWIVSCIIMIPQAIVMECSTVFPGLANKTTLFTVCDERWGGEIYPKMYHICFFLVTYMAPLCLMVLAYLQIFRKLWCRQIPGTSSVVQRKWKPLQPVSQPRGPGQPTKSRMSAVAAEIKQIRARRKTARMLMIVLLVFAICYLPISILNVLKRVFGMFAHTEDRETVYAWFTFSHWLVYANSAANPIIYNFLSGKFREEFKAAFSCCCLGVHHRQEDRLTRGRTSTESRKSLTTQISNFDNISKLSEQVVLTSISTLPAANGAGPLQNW
The experiment in a line: Measurement of orexin type 2 receptor agonist activity (calcium fluorescence, Fluo-4, FDSS). Format: cell-based. The note with it: 3 uM test compound; CHO cells expressing human OX2 receptor; DMSO = 0%, 10 nM orexin A (human) = 100%. The gist of the method:
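CHO-K1 cells stably expressing human OX2 receptor (residues 1-444) were loaded with Fluo-4 AM plus probenecid. Calcium fluorescence after compound addition was recorded for 1 min 40 s. Activity (%) was scaled between DMSO (0%) and 10 nM orexin A final (100%).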
For the compound `Cn1nc2cccc(-c3c(F)cccc3F)c2c1-n1cc2n(c1=O)C[C@@H](NS(C)(=O)=O)C2` [Example 88, N-{(6S)-2-[4-(2,6-difluorophenyl)-2-methyl-2H-indazol-3-yl]-3-oxo-2,5,6,7-tetrahydro-3H-pyrrolo[1,2-c]imidazol-6-yl}methanesulfonamide], the “OX2R agonist activity (3 uM, %)” value was found to be 79%.

On to `CCS(=O)(=O)N[C@@H]1CN2C(=O)N(c3noc4cccc(-c5sccc5C)c34)CC[C@@H]2C1(F)F` [Example 332, N-{(4aR,6R)-5,5-difluoro-2-[4-(3-methylthiophen-2-yl)-1,2-benzoxazol-3-yl]-1-oxooctahydropyrrolo[1,2-c]pyrimidin-6-yl}ethanesulfonamide], for which the “OX2R agonist activity (3 uM, %)” value was 106%. With `CCS(=O)(=O)N[C@@H]1CN2C(=O)N(c3noc4nccc(-c5c(F)cc(F)cc5F)c34)CC[C@@H]2C1(F)F` [Example 235, N-{(4aR,6R)-5,5-difluoro-1-oxo-2-[4-(2,4,6-trifluorophenyl)[1,2]oxazolo[5,4-b]pyridin-3-yl]octahydropyrrolo[1,2-c]pyrimidin-6-yl}ethanesulfonamide], the “OX2R agonist activity (3 uM, %)” value worked out at 113%. Next, `CCS(=O)(=O)N[C@@H]1CN2C(=O)N(c3noc4cc(Cl)cc(-c5c(F)cccc5F)c34)C[C@@H]2C1(F)F` [Example 67, N-{(6R,7aR)-2-[6-chloro-4-(2,6-difluorophenyl)-1,2-benzoxazol-3-yl]-7,7-difluoro-3-oxohexahydro-1H-pyrrolo[1,2-c]imidazol-6-yl}ethanesulfonamide]: 97%. Next, `Cc1c(-c2noc3cccc(-c4c(F)cccc4F)c23)c(=O)n2n1CC(NS(C)(=O)=O)C2` (single isomer, unassigned) [Example 340, N-{(2R*)-6-[4-(2,6-difluorophenyl)-1,2-benzoxazol-3-yl]-7-methyl-5-oxo-2,3-dihydro-1H,5H-pyrazolo[1,2-a]pyrazol-2-yl}methanesulfonamide]: 92%; `O=c1n(-c2noc3cc(F)cc(-c4c(F)cc(F)cc4F)c23)cc2n1C[C@@H](NS(=O)(=O)CF)C2(F)F` [Example 288, N-{(6R)-7,7-difluoro-2-[6-fluoro-4-(2,4,6-trifluorophenyl)-1,2-benzoxazol-3-yl]-3-oxo-2,5,6,7-tetrahydro-3H-pyrrolo[1,2-c]imidazol-6-yl}-1-fluoromethanesulfonamide]: 101%. Regarding `O=C1N(c2noc3cccc(-c4c(F)cccc4F)c23)CC[C@H]2N1C[C@@H](NS(=O)(=O)CF)C2(F)F` [Example 284, N-{(4aR,6R)-2-[4-(2,6-difluorophenyl)-1,2-benzoxazol-3-yl]-5,5-difluoro-1-oxooctahydropyrrolo[1,2-c]pyrimidin-6-yl}-1-fluoromethanesulfonamide], the “OX2R agonist activity (3 uM, %)” value came out at 109%. Next, `O=C1N(c2noc3cc(F)c(F)c(-c4c(F)cccc4F)c23)CC[C@H]2N1C[C@@H](NS(=O)(=O)C1CC1)C2(F)F` [Example 312, N-{(4aR,6R)-2-[4-(2,6-difluorophenyl)-5,6-difluoro-1,2-benzoxazol-3-yl]-5,5-difluoro-1-oxooctahydropyrrolo[1,2-c]pyrimidin-6-yl}cyclopropanesulfonamide]: 100%. On to `Cc1cc2onc(N3CC[C@H]4N(C[C@@H](NS(=O)(=O)C5CC5)C4(F)F)C3=O)c2c(-c2c(F)cc(F)cc2F)n1` [Example 233, N-{(4aR,6R)-5,5-difluoro-2-[6-methyl-4-(2,4,6-trifluorophenyl)[1,2]oxazolo[4,5-c]pyridin-3-yl]-1-oxooctahydropyrrolo[1,2-c]pyrimidin-6-yl}cyclopropanesulfonamide], for which the “OX2R agonist activity (3 uM, %)” value is reported as 109%. As to `CCS(=O)(=O)NC1CN2C(=O)N(c3noc4cccc(-c5c(F)cccc5F)c34)C[C@@H]2C1C` (stereo in doubt) [Example 158, N-{(6R*,7R*,7aS)-2-[4-(2,6-difluorophenyl)-1,2-benzoxazol-3-yl]-7-methyl-3-oxohexahydro-1H-pyrrolo[1,2-c]imidazol-6-yl}ethanesulfonamide], the “OX2R agonist activity (3 uM, %)” value is reported as 103%.

For the compound `CCS(=O)(=O)N[C@@H]1CN2C(=O)N(c3noc4cccc(-c5ccsc5)c34)CC[C@@H]2C1(F)F` [Example 326, N-{(4aR,6R)-5,5-difluoro-1-oxo-2-[4-(thiophen-3-yl)-1,2-benzoxazol-3-yl]octahydropyrrolo[1,2-c]pyrimidin-6-yl}ethanesulfonamide], the “OX2R agonist activity (3 uM, %)” value was determined as 99%. `O=C1N(c2noc3cc(F)c(F)c(-c4c(F)cc(F)cc4F)c23)CC[C@H]2N1C[C@@H](NS(=O)(=O)C1CC1)C2(F)F` [Example 305, N-{(4aR,6R)-2-[5,6-difluoro-4-(2,4,6-trifluorophenyl)-1,2-benzoxazol-3-yl]-5,5-difluoro-1-oxooctahydropyrrolo[1,2-c]pyrimidin-6-yl}cyclopropanesulfonamide]: the “OX2R agonist activity (3 uM, %)” value turned out to be 113%. As to `CNS(=O)(=O)N[C@@H]1Cn2c(cn(-c3noc4ccc(F)c(-c5c(F)cc(F)cc5F)c34)c2=O)C1(F)F` [Example 301, N-{(6R)-7,7-difluoro-2-[5-fluoro-4-(2,4,6-trifluorophenyl)-1,2-benzoxazol-3-yl]-3-oxo-2,5,6,7-tetrahydro-3H-pyrrolo[1,2-c]imidazol-6-yl}-N′-methylsulfuric diamide], the “OX2R agonist activity (3 uM, %)” value is listed as 98%. On to `CCOc1cc2onc(N3CC[C@H]4N(C[C@@H](NS(C)(=O)=O)C4(F)F)C3=O)c2c(-c2c(F)cccc2F)c1F` [Example 228, N-{(4aR,6R)-2-[4-(2,6-difluorophenyl)-6-ethoxy-5-fluoro-1,2-benzoxazol-3-yl]-5,5-difluoro-1-oxooctahydropyrrolo[1,2-c]pyrimidin-6-yl}methanesulfonamide], for which the “OX2R agonist activity (3 uM, %)” value is on record as 102%.
